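Cultured in 96-well plates, cells were exposed to test compound for 48 hours across five concentrations. GI50 is the concentration that inhibits growth by half.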 Activity calls are given as the source filed them. Rule as the data show it: active = GI50 up to about 1.1 µM and inactive = higher.
Legend:
Assay in all cases: inhibition of tumour cell growth, NCI panel, 48 h
DLD-1 = test system: DLD-1
DMS-114 = test system: DMS-114
NCI-H522 = test system: NCI-H522
SR = test system: SR
UACC-257 = test system: UACC-257
CAKI-1 = test system: CAKI-1
M19-MEL = test system: M19-MEL
HOP-92 = test system: HOP-92
HOP-62 = test system: HOP-62
HOP-18 = test system: HOP-18
K562 = test system: K562
LOX IMVI = test system: LOX IMVI
SW-620 = test system: SW-620
Malme-3M = test system: Malme-3M
SNB-75 = test system: SNB-75
SNB-19 = test system: SNB-19
ACHN = test system: ACHN
SK-OV-3 = test system: SK-OV-3
OVCAR-8 = test system: OVCAR-8
SF-268 = test system: SF-268
786-0 = test system: 786-0
RPMI-8226 = test system: RPMI-8226
HT-29 = test system: HT-29
SK-MEL-28 = test system: SK-MEL-28
SF-295 = test system: SF-295
LXFL 529 = test system: LXFL 529
CCRF-CEM = test system: CCRF-CEM
A549 = test system: A549
SF-539 = test system: SF-539
HCT-15 = test system: HCT-15
UO-31 = test system: UO-31
SK-MEL-5 = test system: SK-MEL-5
OVCAR-3 = test system: OVCAR-3
SK-MEL-2 = test system: SK-MEL-2
KM12 = test system: KM12
A498 = test system: A498
HCC 2998 = test system: HCC 2998
KM-20L2 = test system: KM-20L2
SNB-78 = test system: SNB-78
IGROV-1 = test system: IGROV-1
COLO 205 = test system: COLO 205
UACC-62 = test system: UACC-62
NCI-H23 = test system: NCI-H23
U-251 = test system: U-251
TK-10 = test system: TK-10
DMS-273 = test system: DMS-273
HL-60 = test system: HL-60
OVCAR-5 = test system: OVCAR-5
SN12C = test system: SN12C
HCT-116 = test system: HCT-116
M14 = test system: M14
NCI-H460 = test system: NCI-H460
MOLT-4 = test system: MOLT-4
RXF 393 = test system: RXF 393
OVCAR-4 = test system: OVCAR-4
EKVX = test system: EKVX

## Nc1ccn(CCCC(c2ccccc2)P(=O)(O)O)c(=O)n1 (stereo not given)
DLD-1
  GI50: > 100 µM (inactive)
DMS-114
  GI50: > 100 µM (inactive)
NCI-H522
  GI50: > 100 µM (inactive)
SR
  GI50: > 100 µM (inactive)
UACC-257
  GI50: > 100 µM (inactive)
CAKI-1
  GI50: > 100 µM (inactive)
M19-MEL
  GI50: > 100 µM (inactive)
HOP-92
  GI50: 91.4 µM (inactive)
HOP-62
  GI50: > 100 µM (inactive)
HOP-18
  GI50: > 100 µM (inactive)
K562
  GI50: > 100 µM (inactive)
LOX IMVI
  GI50: > 100 µM (inactive)
SW-620
  GI50: > 100 µM (inactive)
Malme-3M
  GI50: > 100 µM (inactive)
SNB-75
  GI50: > 100 µM (inactive)
SNB-19
  GI50: > 100 µM (inactive)
ACHN
  GI50: > 100 µM (inactive)
SK-OV-3
  GI50: > 100 µM (inactive)
OVCAR-8
  GI50: > 100 µM (inactive)
SF-268
  GI50: > 100 µM (inactive)
786-0
  GI50: > 100 µM (inactive)
RPMI-8226
  GI50: > 100 µM (inactive)
HT-29
  GI50: > 100 µM (inactive)
SK-MEL-28
  GI50: > 100 µM (inactive)
SF-295
  GI50: > 100 µM (inactive)
LXFL 529
  GI50: > 100 µM (inactive)
CCRF-CEM
  GI50: > 100 µM (inactive)
A549
  GI50: > 100 µM (inactive)
SF-539
  GI50: > 100 µM (inactive)
HCT-15
  GI50: > 100 µM
UO-31
  GI50: > 100 µM (inactive)
SK-MEL-5
  GI50: > 100 µM (inactive)
OVCAR-3
  GI50: > 100 µM (inactive)
SK-MEL-2
  GI50: > 100 µM (inactive)
KM12
  GI50: > 100 µM (inactive)
A498
  GI50: > 100 µM (inactive)
HCC 2998
  GI50: > 100 µM (inactive)
KM-20L2
  GI50: > 100 µM (inactive)
SNB-78
  GI50: > 100 µM (inactive)
IGROV-1
  GI50: > 100 µM (inactive)
COLO 205
  GI50: > 100 µM (inactive)
UACC-62
  GI50: > 100 µM (inactive)
NCI-H23
  GI50: > 100 µM (inactive)
U-251
  GI50: > 100 µM (inactive)
TK-10
  GI50: > 100 µM (inactive)
DMS-273
  GI50: > 100 µM (inactive)
HL-60
  GI50: > 100 µM (inactive)
OVCAR-5
  GI50: > 100 µM (inactive)
SN12C
  GI50: > 100 µM (inactive)
HCT-116
  GI50: > 100 µM (inactive)
M14
  GI50: > 100 µM (inactive)
NCI-H460
  GI50: > 100 µM (inactive)

## O=C1c2ccccc2C(=O)c2c(O)ccc(O)c21 [QUINIZARIN]
DLD-1
  GI50: 61.9 µM (inactive)
DMS-114
  GI50: > 100 µM (inactive)
NCI-H522
  GI50: > 100 µM (inactive)
UACC-257
  GI50: > 100 µM (inactive)
CAKI-1
  GI50: > 100 µM (inactive)
M19-MEL
  GI50: 21.8 µM (inactive)
HOP-92
  GI50: > 100 µM (inactive)
HOP-62
  GI50: > 100 µM (inactive)
K562
  GI50: > 100 µM (inactive)
LOX IMVI
  GI50: > 100 µM (inactive)
SW-620
  GI50: 93.8 µM (inactive)
Malme-3M
  GI50: > 100 µM (inactive)
SNB-75
  GI50: > 100 µM (inactive)
SNB-19
  GI50: > 100 µM (inactive)
ACHN
  GI50: > 100 µM (inactive)
SK-OV-3
  GI50: > 100 µM (inactive)
OVCAR-8
  GI50: > 100 µM (inactive)
SF-268
  GI50: > 100 µM (inactive)
MOLT-4
  GI50: 52 µM (inactive)
786-0
  GI50: > 100 µM (inactive)
RPMI-8226
  GI50: 91 µM (inactive)
HT-29
  GI50: 45.3 µM (inactive)
SK-MEL-28
  GI50: > 100 µM (inactive)
SF-295
  GI50: > 100 µM (inactive)
LXFL 529
  GI50: > 100 µM (inactive)
CCRF-CEM
  GI50: > 100 µM (inactive)
A549
  GI50: 81.3 µM (inactive)
RXF 393
  GI50: > 100 µM (inactive)
SF-539
  GI50: > 100 µM (inactive)
HCT-15
  GI50: > 100 µM
UO-31
  GI50: 59 µM (inactive)
SK-MEL-5
  GI50: 63.1 µM (inactive)
OVCAR-3
  GI50: 29.2 µM (inactive)
SK-MEL-2
  GI50: 79.8 µM (inactive)
KM12
  GI50: 60.5 µM (inactive)
A498
  GI50: > 100 µM (inactive)
HCC 2998
  GI50: 81.1 µM (inactive)
SNB-78
  GI50: > 100 µM (inactive)
IGROV-1
  GI50: > 100 µM (inactive)
COLO 205
  GI50: > 100 µM (inactive)
UACC-62
  GI50: > 100 µM (inactive)
NCI-H23
  GI50: > 100 µM (inactive)
U-251
  GI50: > 100 µM (inactive)
TK-10
  GI50: > 100 µM (inactive)
DMS-273
  GI50: > 100 µM (inactive)
HL-60
  GI50: > 100 µM (inactive)
OVCAR-4
  GI50: > 100 µM (inactive)
OVCAR-5
  GI50: > 100 µM (inactive)
SN12C
  GI50: > 100 µM (inactive)
HCT-116
  GI50: > 100 µM (inactive)
EKVX
  GI50: 58.7 µM (inactive)
M14
  GI50: > 100 µM (inactive)
NCI-H460
  GI50: 40.8 µM (inactive)
